Measured values: patent US20250144067A1, “PERSONALIZED STARVATION THERAPY FOR CANCER” (Faeth Therapeutics, Inc., priority 2021, published 2025)
Where a name gives a salt, the structure may show the parent alone.

Experiments:
[1] = tested on: NCI-H292 lung cancer cells; test: FDA drug screening, complete media vs cholesterol-free media without statin (TABLE 1); assay type: cell-based, human
[2] = tested on: NCI-H292 lung cancer cells; test: FDA drug screening, complete media vs cholesterol-free media with simvastatin (TABLE 2); assay type: cell-based, human; conditions: for Cholesterol-free media + simvastatin (0.04 μM) / Complete Media: NCI-H292 cells
[3] = NCI-H292 cells, cholesterol-free media without statin, FDA drug library screen
[4] = NCI-H292 cells, complete media, FDA drug library screen
[5] = complete vs cholesterol-free media; >0 enhanced anti-cancer activity, about 0 neutral, <0 antagonist
[6] = cholesterol-free media with simvastatin 0.04 μM, FDA drug library screen (TABLE 2)
[7] = complete media, FDA drug library screen (TABLE 2)
[8] = complete media minus cholesterol-free media + simvastatin (0.04 μM), >0 enhanced anti-cancer activity, about 0 neutral, <0 antagonist
[9] = Complete minus Cholesterol-free; greater than 0 enhanced anti-cancer activity, about 0 neutral, below 0 antagonist
[10] = NCI-H292 cells, FDA drug library screen, cholesterol-free media without statin
[11] = NCI-H292 cells, FDA drug library screen, complete media
[12] = cholesterol-free media with simvastatin 0.04 μM, cell growth value in FDA drug screen
[13] = complete media, cell growth value in FDA drug screen
[14] = complete media minus cholesterol-free media + simvastatin, >0 enhanced anti-cancer activity, about 0 neutral, <0 antagonist
[15] = NCI-H292 cells, cholesterol-free media without statin
[16] = complete vs cholesterol-free media; greater than 0 enhanced anti-cancer activity, about 0 neutral, below 0 antagonists
[17] = Complete minus Cholesterol-free; […]
[18] = FDA library drug in cholesterol-free media with simvastatin 0.04 μM
[19] = FDA library drug in complete media
[20] = complete media vs cholesterol-free media + simvastatin (0.04 μM), […]
[21] = FDA drug library screen, cholesterol-free media with simvastatin 0.04 μM
[22] = FDA drug library screen, complete media
[23] = Complete minus Cholesterol-free; >0 enhanced anti-cancer activity, about 0 neutral, <0 antagonist
[24] = complete media vs cholesterol-free media + simvastatin (0.04 μM), >0 enhanced anti-cancer activity, about 0 neutral, <0 antagonist

Compound	Cholesterol-free [1, 3]	Complete [1, 4]	Cholesterol-free media + simvastatin (0.04 μM) [2, 6]	Complete Media [2, 7]	Difference [2, 8]	Cholesterol-free [1, 15]	Complete ([1]; NCI-H292 cells, complete media)	Difference [1, 23]	Difference [2, 24]	further results
CN[C@@H]1[C@H](O)[C@H](NC)[C@H]2O[C@@]3(O)C(=O)C[C@@H](C)O[C@H]3O[C@@H]2[C@H]1O [Spectinomycin (dihydrochloride)]	0.9841	1.077	1.126	1.142	0.02	–	–	–	–	Difference [1, 5]: 0.09
O=C(Nc1cccc2c(=O)cc(-c3nnn[nH]3)oc12)c1ccc(OCCCCc2ccccc2)cc1 [Pranlukast (hemihydrate)]	–	–	–	–	–	–	–	–	–	Difference [1, 9]: −0.10; Cholesterol-free [1, 10]: 1.075; Complete [1, 11]: 0.9755; Cholesterol-free media + simvastatin (0.04 μM) [2, 12]: 1.189; Complete Media [2, 13]: 1.285; Difference [2, 14]: 0.10
Nc1nc2nc[nH]c2c(=S)[nH]1 [6-Thioguanine]	–	–	0.7013	0.7052	0.00	0.7053	0.3153	–	–	Difference [1, 16]: −0.39
COc1cc2nccc(Oc3ccc(NC(=O)C4(C(=O)Nc5ccc(F)cc5)CC4)cc3)c2cc1OC [Cabozantinib]	–	–	1.169	1.161	−0.01	–	–	–	–	Difference [1, 9]: −0.08; Cholesterol-free [1, 10]: 1.023; Complete [1, 11]: 0.943
Nc1ccc(C(=O)[O-])c(O)c1.O.O.[Na+] [Sodium 4-aminosalicylate (dihydrate)]	–	–	–	–	–	–	–	–	–	Difference [1, 17]: −0.15; Cholesterol-free [1, 10]: 1.093; Complete [1, 11]: 0.9477; Cholesterol-free media + simvastatin (0.04 μM) [2, 18]: 1.473; Complete Media [2, 19]: 1.188; Difference [2, 20]: −0.29
Medroxyprogesterone	–	0.9783	–	–	–	–	–	–	–	Difference [1, 17]: −0.03; Cholesterol-free media + simvastatin (0.04 μM) [2, 21]: 0.8858; Complete Media [2, 22]: 1.173; Difference ([2]; complete media minus cholesterol-free media + simvastatin, […]): 0.29
CO/N=C(\C(=O)N[C@@H]1C(=O)N2C(C(=O)[O-])=C(COC(N)=O)CS[C@H]12)c1ccco1.[Na+] [Cefuroxime (sodium)]	–	–	–	–	–	1.146	0.9534	−0.19	−0.09	Cholesterol-free media + simvastatin (0.04 μM) [2, 21]: 1.129; Complete Media [2, 22]: 1.035
CO/N=C(\C(=O)N[C@@H]1C(=O)N2C(C(=O)O)=C(CSc3nc(C)c(CC(=O)O)s3)CS[C@H]12)c1csc(N)n1 [Cefodizime]	0.9888	0.9297	–	–	–	–	–	−0.06	−0.17	Cholesterol-free media + simvastatin (0.04 μM) ([2]; drug in cholesterol-free media with simvastatin 0.04 μM): 1.707; Complete Media ([2]; drug in complete media): 1.539
COc1c(O)cc2c(c1O)[C@@H]1O[C@H](CO)[C@@H](O)[C@H](O)[C@H]1OC2=O [Bergenin]	–	–	–	–	–	0.9949	0.7827	−0.21	–	Cholesterol-free media + simvastatin (0.04 μM) [2, 12]: 0.6754; Complete Media [2, 13]: 0.7494; Difference [2, 14]: 0.07
CC(C)C[C@H](NC(=O)CNC(=O)c1cc(Cl)ccc1Cl)B(O)O [Ixazomib]	0.05045	−0.01336	0.01223	−0.009398	−0.02	–	–	−0.06	–	–
Cc1ccnc2c1NC(=O)c1cccnc1N2C1CC1 [Nevirapine]	0.7658	1.137	–	–	–	–	–	–	−0.46	Difference [1, 5]: 0.37; Cholesterol-free media + simvastatin (0.04 μM) [2, 18]: 1.384; Complete Media [2, 19]: 0.9254
CC(C)(C)CC(=O)OCC(=O)[C@@]12OC(C)(C)O[C@@H]1C[C@H]1[C@@H]3CCC4=CC(=O)C=C[C@]4(C)[C@@]3(F)[C@@H](O)C[C@@]12C [Triamcinolone hexacetonide]	–	–	–	–	–	0.7329	0.5285	−0.20	−0.40	Cholesterol-free media + simvastatin (0.04 μM) [2, 18]: 1.053; Complete Media [2, 19]: 0.6525
Cc1ncc(OC[C@@]2(c3cccc(F)c3)C[C@H]2C(=O)Nc2ccc(F)cn2)c(C)n1 [Lemborexant]	–	–	–	–	–	1.55	1.207	–	–	Difference ([1]; complete vs cholesterol-free media; […]): −0.34; Cholesterol-free media + simvastatin (0.04 μM) [2, 21]: 1.185; Complete Media [2, 22]: 1.038; Difference [2, 20]: −0.15
O=C[C@H](O)[C@@H](O)[C@H](O)CO [Xylose]	–	–	–	–	–	1.238	0.9044	–	−0.11	Difference [1, 16]: −0.33; Cholesterol-free media + simvastatin (0.04 μM) [2, 21]: 1.188; Complete Media [2, 22]: 1.083
CCC(=O)c1c(O)cc(O)cc1O [Flopropione]	1.019	0.9515	1.103	1.044	−0.06	–	–	−0.07	–	–
Cc1cc(C(=O)NNCc2ccccc2)no1 [Isocarboxazid]	0.685	1.428	1.551	1.506	−0.05	–	–	–	–	Difference [1, 5]: 0.74
COc1cc(CNC(=O)CCCC/C=C/C(C)C)ccc1O [Capsaicin]	–	–	1.403	1.38	−0.02	1.197	0.9142	−0.28	–	–
COc1cc(C(=O)NS(=O)(=O)c2ccccc2C)ccc1Cc1cn(C)c2ccc(NC(=O)OC3CCCC3)cc12 [Zafirlukast]	0.8473	0.9001	–	–	–	–	–	0.05	−0.09	Cholesterol-free media + simvastatin (0.04 μM) [2, 21]: 1.598; Complete Media [2, 22]: 1.505
COc1cccc2c1C(=O)c1c(O)c3c(c(O)c1C2=O)C[C@@](O)(C(=O)CO)C[C@@H]3O[C@H]1C[C@H](N)[C@H](O[C@@H]2CCCCO2)[C@H](C)O1 [Pirarubicin (Hydrochloride)]	–	–	0.5554	0.5244	–	–	–	–	–	Difference [1, 17]: −0.09; Cholesterol-free [1, 10]: 0.6484; Complete [1, 11]: 0.5605; Difference ([2]; complete media minus cholesterol-free media + simvastatin (0.04 μM), […]): −0.03
O=c1[nH]c(=O)n([C@H]2C[C@H](O)[C@@H](CO)O2)cc1/C=C/Br [Brivudine]	–	–	–	–	–	1.108	0.7267	–	–	Difference [1, 16]: −0.38; Cholesterol-free media + simvastatin (0.04 μM) [2, 12]: 1.157; Complete Media [2, 13]: 1.26; Difference [2, 14]: 0.10
COc1cc(/C=C/C(=O)O)ccc1O [Ferulic acid]	–	–	–	–	–	1.087	0.8516	−0.23	−0.34	Cholesterol-free media + simvastatin (0.04 μM) [2, 18]: 1.055; Complete Media [2, 19]: 0.7118
COc1ccc(-c2nc3ccc(C4=NNC(=O)CC4C)cc3[nH]2)cc1 (centres unmarked) [Pimobendan]	–	–	1.535	1.535	0.00	–	–	–	–	Difference [1, 9]: −0.11; Cholesterol-free [1, 10]: 1.104; Complete [1, 11]: 0.9932
